Laboratory results taken from patent EP0238982B1, “Anticholinergic compounds, pharmaceutical compositions and method of treatment” (UNIVERSITY OF FLORIDA, priority 1986, dated 1987).
Like-named read-outs stand apart in the source and are kept apart here.

Experiments:
[1] = Hydrolytic rate constants in aqueous buffered solution at pH 12, 37°C (HPLC); assay type: physicochemical; settings: for observed First Order Hydrolytic Rate Constants (k) K ± S.E: average of three runs ± S.E.M.
Procedure: A high pressure liquid chromatography (HPLC) method was used for the determination of rate of hydrolysis of the newly prepared tropanyl esters in aqueous buffered solution at pH 12.0 and in human plasma.
(§1) The chromatographic analysis was performed in a system consisting of LCD/Milton Roy Consta Metric III metering pump and LCD UV III Monitor Detector operated at 254 nm. A 30 cm x 3.9 mm (internal diameter) reverse phase ASI/U Bondpak C18 column operated at ambient temperature was used for the analysis. The mobile phase consisted of 32% acetonitrile in 0.01 M potassium dihydrogen phosphate, 0.004 M 1-octanesulfonic acid, sodium in 0.1% acetic acid at a flow rate of 2.3 ml/min.
Sodium hydroxide and sodium dibasic phosphate were used to prepare the buffer at pH 12. The ionic strength was maintained at 0.1 M with sodium chloride.
One hundred microliters of a freshly prepared solution of the compound in methanol was added to 10 ml buffered solution, previously equilibrated to 37°C in a water bath and mixed thoroughly to make an initial concentration of 6 x 10⁻³ mol. liter⁻¹. Samples of 100 µl were injected into the column at various time intervals. […] A mobile phase of 40% acetonitrile was used to separate compounds 4 and 6 at a flow rate of 2.0 ml/min.
The previous method adapted for the hydrolysis of compounds 1, 2, 3 and 5 was used for the determination of rate of hydrolysis of compounds 4, 6 and 7. In case of compounds 4 and 6, the mobile phase is 40% acetonitrile, 0.01 M KH₂PO₄, 0.04M 1-octanesulfonic acid sodium salt and 0.1% HAC, at a flow rate 2 ml/min.

[2] = system: carbachol-induced spasms of strips of ileum; experiment: Anticholinergic activity in vitro: inhibition of carbachol-induced spasms of guinea pig ileum strips; assay type: cell-based; settings: for Kb: Cavia porcellus
Procedure: The anticholinergic activity of all the new compounds was investigated in vitro by studying the inhibitory action of the drugs on carbachol-induced spasms of strips of ileum from freshly killed guinea pigs. The terminal ileum from guinea pig (200-500 g) was cut into 2-3 cm strips and suspended in freshly prepared Tyrode's solution in 40 ml organ bath. The solution was aerated with 95% oxygen and 5% carbon dioxide at 37°C. A tension of 1 g was applied to the tissue, and cumulative-response curves recorded with carbachol until constant responses were obtained. A concentration of the antagonist was then added to the bath and after 10 seconds, further concentration response curves to carbachol were established. This procedure was then repeated using increasing concentrations of the antagonist. EC₅₀ was calculated for carbachol alone and for carbachol in the presence of the various antagonist concentrations. Atropine was used as standard for comparison. The PA₂ was calculated as follows: PA₂ = log ((A)/(a)-1) -log [antagonist] [formula] A = EC₅₀ or carbachol in presence of the antagonist a = EC₅₀ for carbachol alone before adding antagonist

[3] = Enzymatic hydrolytic cleavage rates in human plasma at 37°C (HPLC); assay type: in vitro ADME; parameters: half-life: dose or concentration left out as unconfirmed; settings: for half-life: read-out: half lives (t 1/2) (converted)
Procedure: as §1
Freshly collected plasma was used which contained about 80% plasma diluted with anticoagulant citrate phosphate dextrose solution, U.S.P.
A 100 µl volume of a freshly prepared solution of the compound in methanol was added to 10 ml plasma, previously equilibrated a 37°C in a water bath, and mixed thoroughly to result in an initial concentration of 6 x 10⁻³ mol. liter⁻¹. One ml samples of plasma were withdrawn from the test medium, mixed immediately with 3 ml ice cold acetonitrile, centrifuged and the supernatant analyzed by HPLC. The first order hydrolytic rate constant was determined by following the disappearance of the compound as function of time.

[4] = Hydrolysis of tertiary ethyl ester (2) and formation of its degradation product (7) at pH 12, 37°C (HPLC); assay type: physicochemical; parameters: dose or concentration left out as unconfirmed; settings: 0.01 N NaOH pH at 37°C, read-out: t 1/2, hydrolysis (disappearance) of tertiary ethyl ester (2)
Procedure: The mobile phase used for the separation of compound (2) and its degradation product, the half ester (7) consisted of 32% MeCN, 0.01M KH₂PO₄, 0.004M 1-octanesulfonic acid sodium salt and 0.1% acetic acid. At flow rate of 1.5 ml/min (2) and (7) have retention times of 9 min and 4.6 min, respectively.
100 microliters of a freshly prepared solution of compound (2) in methanol was added to 10 ml buffered solution (pH 12), previously equilibrated to 37°C in a water bath to result in an initial concentration of 6 x 10⁻³ mol liter⁻¹. Samples of 1 ml were taken at time intervals and mixed with 3 ml of acetonitrile. 100 microliters of the collected samples were injected and disappearance of (2) and formation of (7) was followed by HPLC.

[5] = Enzymatic hydrolysis in rat liver homogenate at 37°C (HPLC); assay type: in vitro ADME, Sprague-Dawley rats; settings: for Rates of hydrolysis in liver homogenate K ± S.E.: 20% rat liver homogenate; for half-life / half-life at 6000 µM: rat, liver homogenate
Procedure: The liver homogenate was prepared by the following method. Two Sprague-Dawley rats were killed by decapitation, and the livers were removed, weighed and homogenized in a tissue homogenizer in 0.11 M aqueous phosphate buffer, pH 7.4, to make 20% liver homogenate. The homogenate was centrifuged and the supernatant was used for the test. 100 l of 0.6 M solution of the ester in methanol was mixed with 10 ml of the homogenate, previously equilibrated to 37°C in a water bath, to result in an initial concentration of 6 x 10⁻³ mol/liter⁻¹. samples of 1.0 ml were withdrawn at time intervals from the medium, added immediately to 3 ml ice-cold acetonitrile, shaken vigorously, and placed in a freezer. When all samples had been collected, they were centrifuged, and each supernantant was analyzed by HPLC.

[6] = Hydrolysis of tropanyl hydrogen phenyl malonate (7) to the dibasic acid (8) at pH 12, 37°C (HPLC); assay type: physicochemical; settings: 0.01 n naoh; 0.01 N sodium hydroxide, pH 12 at 37°C; read-out: t 1/2, hydrolysis (disappearance) of (7)
Procedure: The previously described method for the determination of rate of hydrolysis of compound (2) was followed for the determination of hydrolysis of compound (7).
The disappearance of compound (7) was followed by HPLC.
The concentration of the formed dibasic acid was determined by HPLC. 15% acetonitrile, 0.01M KH₂ PO₄ and 0.1% acetic acid was used as a mobile phase. At a flow rate of 2 ml/min, the product has a retention time of 4 min.
The collected samples after determination of rate of disappearance of compound (7) were used for the determination of rate of formation of the hydrolysis product (8). 100 microliters of the sample was injected and the formation of the product was followed by HPLC.

[7] = 0.01 N sodium hydroxide at pH 12.0, at 37°C
[8] = 0.01 n naoh buffer, 0.01 N sodium hydroxide at pH 12.0, at 37°C, read-out: half-life (t 1/2)
[9] = aqueous buffer, aqueous solution pH 12, 37°C, average of three runs, read-out: t 1/2 (Min) AQUEOUS SOLN, pH 12, 37°C
[10] = guinea pig ileum, against carbachol, average of two experiments (compounds 1 and 4: three), read-out: PA2 (converted)
[11] = pH 7.4, 20% rat liver homogenate, pH 7.4, 37°C, read-out: t 1/2 in liver homogenate
[12] = pH 7.4, rat liver homogenate, 37°C, average of three runs, read-out: t 1/2 (Min) RAT LIVER HOMOGENATE, 37°C
[13] = 0.01 m naoh buffer, 0.01 M sodium hydroxide at pH 12 and 37°C, read-out: half lives (t 1/2)
[14] = method of Example 19, quaternary methiodide soft esters, read-out: PA2 QUATERNARY AMINE (converted)

Row | SMILES | observed First Order Hydrolytic Rate Constants (k) K ± S.E [1, 7] | half-life [1, 8] [min] | half-life [1, 9] [min] | Kb [2, 10] [nM] | kobsd HUMAN PLASMA, 37°C [3] | observed first order hydrolytic rate constants (K) ± S.E.M. [3] | half-life ([3]; human plasma at 37°C) [h] | Rates of hydrolysis in liver homogenate K ± S.E. ([5]; pH 7.4, 37°C) | half-life [5, 11] [min] | half-life [5, 12] [min] | half-life [1, 13] [min] | further results
1 | COC(=O)C(C(=O)OC1CC2CCC(C1)N2C)c1ccccc1 (racemic) [Compound 1, Methyl (±)-α-(carboxy)-8-methyl-8-azabicyclo[3·2·1]oct-3-yl-benzeneacetate] | 1.43 ± 0.12 x 10^-1 min^-1 | 4.8 | 4.8 | 282 |  |  |  |  |  |  |  | 
2 | CCOC(=O)C(C(=O)OC1CC2CCC(C1)N2C)c1ccccc1 (racemic) [Compound 2, Ethyl (±)-α-(carboxy)-8-methyl-8-azabicyclo[3·2·1]oct-3-yl-benzeneacetate] | 16.9 ± 0.15 x 10^-2 min^-1 | 4.08 | 4.08 | 191 | 15.0 ± 0.3 x 10^-5 min^-1 | 15.0 ± 0.3 x 10^-5 min^-1 | 77.4 | 1.99 ± 0.996 x 10^-1 min^-1 | 3.48 | 3.48 |  | half-life [4]: 4.19 ± 0.14 min
3 | CC(C)OC(=O)C(C(=O)OC1CC2CCC(C1)N2C)c1ccccc1 (racemic) [Compound 3, isopropyl (±)-α-(carboxy)-8-methyl-8-azabicyclo[3·2·1]oct-3-yl-benzeneacetate] | 30 ± 0.77 x 10^-3 min^-1 | 22.8 | 22.8 | 28.2 | 6.27 ± 0.3 x 10^-5 min^-1 | 6.27 ± 0.3 x 10^-5 min^-1 | 186 | 97.2 ± 0.76 x 10^-3 min^-1 | 7.12 | 7.12 |  | 
4 | CN1C2CCC1CC(OC(=O)C(C(=O)OC1CCCCC1)c1ccccc1)C2 (racemic) [Compound 4, cyclohexyl (±)-α-(carboxy)-8-methyl-8-azabicyclo-[3.2.1]oct-3-yl-benzeneacetate] |  |  | 182 | 257 | 4.44 ± 0.4 x 10^-5 min^-1 | 4.44 ± 0.4 x 10^-5 min^-1 | 270 | 37.0 ± 0.3 x 10^-3 min^-1 | 18.7 | 18.7 | 182 | 
5 | CCOC(=O)C(C(=O)OC1CC2CCC(C1)[N+]2(C)C)c1ccccc1 (racemic) [Compound 5, Ethyl (±)-α-(carboxy)-8-methyl-8-azabicyclo[3·2·1]oct-3-yl benzeneacetate methiodide] |  | 0.85 | 0.85 | 13.8 |  |  | 82.2 | 10.5 ± 0.28 x 10^-2 min^-1 |  |  |  | observed first order hydrolytic rate constants (K) ± S.E.M. ([3]; human plasma at 37°C, compound 2 average of 4 runs, the rest 3 runs): 14.1 ± 0.6 x 10^-5 min^-1; half-life at 6000 µM [5, 11]: 6.6 min; half-life at 6000 µM [5, 12]: 6.6 min; Kb [2, 14]: 14.1 nM
6 | C[N+]1(C)C2CCC1CC(OC(=O)C(C(=O)OC1CCCCC1)c1ccccc1)C2 (racemic) [Compound 6, Cyclohexyl (±)-α-(carboxy)-8-methyl-8-azabicyclo-[3·2·1]oct-3-yl benzeneacetate methiodide] |  |  | 1.28 | 44.7 | 6.31 ± 0.8 x 10^-5 min^-1 | 6.31 ± 0.8 x 10^-5 min^-1 | 183 | 10.4 ± 0.23 x 10^-3 min^-1 | 66.8 | 66.8 | 1.28 | 
7 | CN1C2CCC1CC(OC(=O)C(C(=O)O)c1ccccc1)C2 (racemic) [Compound 7, (±)-α-(carboxy)-8-methyl-8-azabicyclo-[3·2·1]oct-3-yl benzeneacetic acid] |  |  | 350 | 631 |  |  |  |  |  |  | 350 | half-life [6]: 331 ± 4.31 min
8 | CC(C)OC(=O)C(C(=O)OC1CC2CCC(C1)[N+]2(C)C)c1ccccc1 (racemic) [VIc, isopropyl (±)-α-(carboxy)-8-methyl-8-azabicyclo[3·2·1]oct-3-yl-benzeneacetate methiodide] |  |  |  |  |  |  |  |  |  |  |  | Kb [2, 14]: 24.5 nM
9 | CN1[C@@H]2CC[C@H]1C[C@@H](OC(=O)C(CO)c1ccccc1)C2 (some centres unmarked) [Atropine, reference compound] |  |  |  |  |  |  |  |  |  |  |  | PA2 [2]: 8.29; PA2 TERTIARY AMINE [2]: 8.29
